Source: patent US8877261B2, “Anti-redness active agent and cosmetic compositions comprising same” (Laboratoires Expanscience, priority 2011, dated 2014)
Marks after values point to notes of the source that are not given here.

Tests used:
interleukin-8 (IL8) = assay: Release of IL8 by keratinocytes induced by PMA (ELISA); type: cell-based, human; settings: dexamethasone 10^−7 M, ARG 0.2% + LUP 0.02%
Procedure: Human keratinocytes (NCTC 2544 cell line) were preincubated for 24 hours with the arabinogalactan (ARG)/lupin peptides (LUP) active agents at concentrations of 0.2%/0.02% or with the reference molecule, dexamethasone.
Inflammation was then induced by treatment with PMA for 24 hours, always in the presence of the active agents or the reference molecule.
At the end of incubation, the quantities of interleukin-8 (IL8) present in the culture supernatants were measured by ELISA.
The significance of the results was verified by a single-factor analysis of variance followed by a Tukey's test.
The percentage of inhibition is calculated according to the following formula: [(stimulated PMA)−(active treatment)/(stimulated PMA)]*100 Results (Table 10)

MMP9 = assay: Gene expression of MMP9 in keratinocytes induced by PMA (real-time PCR); type: cell-based, human; settings: NHEK, total 40 hours
Procedure: The effect of the active agents was sought in a basal condition (to study MMP2) or in a preventive manner on a cell layer having been subjected to inflammatory stress induced by PMA (for MMP9).
Normal human epidermal keratinocytes (NHEK) were preincubated for 24 hours in the presence of the arabinogalactan (ARG)/lupin peptides (LUP) active agents at concentrations of 0.2%/0.02%. PMA was then added for a total treatment period of 40 hours.
At the end of the treatment, the culture supernatants were removed and total RNA was extracted, analyzed and assayed. The neo-synthesized cDNA relating to the genes of interest (MMP2, MMP9) or to the reference genes were amplified selectively by iQ5 real-time PCR (Biorad) using SybrGreen technology.
(§1) By calculating ΔCt (Ctgene of interest−Ctreference gene) and ΔΔCt (ΔCtcontrol−ΔCttreated) the relative quantity of the gene of interest was measured: RQ=(1+E)^ΔΔCt; when E (effectiveness) is equal to 1, then RQ=2^ΔΔCt.
The significance of the results was verified for the ΔCt values by a single-factor analysis of variance followed by a Dunnett's test (for MMP2) or a Tukey's test (for MMP9).
The percentage of inhibition is thus calculated for MMP9: [(RQ(PMA stimulated)−RQ(active treatment))/RQ(PMA stimulated)]*100 Results

kallikrein-5 (KLK5) = assay: Gene expression of kallikrein-5 (KLK5) induced by calcitriol in keratinocytes (real-time PCR); type: cell-based, human
Procedure: (§2) Normal human epidermal keratinocytes (NHEK) were cultured in differentiation culture medium supplemented with Ca^++. […] At the end of the treatment, the culture supernatants were removed and total RNA was extracted, analyzed and assayed. The neo-synthesized cDNA relating to the genes of interest (LL37 and KLK5) or to the reference genes were amplified selectively by iQ5 real-time PCR (Biorad) using SybrGreen technology. […] By calculating ΔCt (Ctgene of interest−Ctreference gene) and ΔΔCt (ΔCtcontrol−ΔCttreated) the relative quantity of the gene of interest was measured: […] The significance of the results was verified for the ΔCt values by a single-factor analysis of variance followed by a Tukey's test. The percentage of inhibition of the expression of LL37 and KLK5 is thus calculated: [(RQ(stim calcitriol)−RQ(active treatment))/RQ(stim calcitriol)]*100 Results

cathelicidin (LL37) = assay: Gene expression of cathelicidin (LL37) induced by calcitriol in keratinocytes (real-time PCR); type: cell-based, human; settings: for Mean ΔCt (CtLL37 − CtGAPDH) / LL37 expression (relative quantity) / ΔΔCt (LL37) / Percentage of inhibition (LL37 expression): NHEK, 24 hours, ARG 0.2%, LUP 0.02%; for Mean ΔCt (CtLL37 − CtGAPDH) / LL37 expression (relative quantity) / ΔΔCt (LL37): with calcitriol; for Mean ΔCt (CtLL37 − CtGAPDH): alone or in combination; for LL37 expression (relative quantity): control cells = 1.00; for ΔΔCt (LL37): ΔCtcontrol−ΔCttreated; for Percentage of inhibition (LL37 expression): versus calcitriol stimulated control
Procedure: as §2

[1] = test system: Normal human dermal microvascular endothelial cells; assay: Proliferation of endothelial cells in the presence of VEGF (PNPP viability); type: cell-based; settings: for T24 h - %/control (without VEGF) T0 / Percentage of inhibition 24 h (proliferation induced by VEGF): 24 hours; for T24 h - %/control (without VEGF) T0 / T48 h - %/control (without VEGF) T0: in the presence of VEGF, PNPP signal, mean±standard deviation; for T24 h - %/control (without VEGF) T0 / T48 h - %/control (without VEGF) T0 / Percentage of inhibition 24 h (proliferation induced by VEGF) / Percentage of inhibition 48 h (proliferation induced by VEGF): ARG 0.2%, LUP 0.02%; for T48 h - %/control (without VEGF) T0 / Percentage of inhibition 48 h (proliferation induced by VEGF): 48 hours; for stimulation of the growth of endothelial cells in relation to control cells: VEGF, p<0.01; for Percentage of inhibition 24 h (proliferation induced by VEGF) / Percentage of inhibition 48 h (proliferation induced by VEGF): alone or in combination
Procedure: Normal human dermal microvascular endothelial cells were incubated for 24 or 48 hours in the absence (control) or in the presence of the arabinogalactan (ARG)/lupin peptides (LUP) active agents at concentrations of 0.2%/0.02% alone or in combination and in the presence of vascular endothelial growth factor (VEGF), the reference activator. At the end of incubation, the viability of the cells was evaluated by a spectrophotometric method: P-nitrophenyl phosphate (PNPP) is transformed into p-nitrophenol by phosphatases of viable cells and the absorbance at 405 nm of p-nitrophenol is directly proportional to the number of viable cells.
The results are expressed as the percentage of the “PNPP” signal of the control without VEGF at TO (mean±standard deviation).
The statistical significance of the differences between the “VEGF stimulated cells” and “VEGF+active agents” conditions was evaluated by a single-factor analysis of variance followed by a Holm-Sidak test.
The percentage of inhibition of proliferation is calculated according to the following equation: [(active treatment)−(VEGF stimulated)/(control without VEGF)−(VEGF stim)]*100 Results

VEGF = assay: Gene expression of VEGF by keratinocytes (real-time PCR); type: cell-based, human; settings: NHEK; for Percentage of inhibition (VEGF expression): versus control cells
Procedure: Normal human epidermal keratinocytes (NHEK) were incubated in the presence of the complex of arabinogalactan (ARG)/lupin peptides (LUP) active agents at concentrations of 0.2%/0.02% alone or in combination.
At the end of the treatment, the culture supernatants were removed and total RNA was extracted, analyzed and assayed. The neo-synthesized cDNA relating to the genes of interest (VEGF, FGF2, HIF1α, THBS1) or to the reference genes were amplified selectively by iQ5 real-time PCR (Biorad) using SybrGreen technology.
as §1
The significance of the results was verified for the ΔCt values by a single-factor analysis of variance followed by a Dunnett's test.
The percentage of inhibition is calculated for VEGF, FGF2 and HIF1α: [(RQ(control)−RQ(active treatment))/RQ (control)]*100

[2] = NCTC 2544 keratinocytes, 24 hours preincubation then PMA 24 hours, culture supernatants
[3] = calcitriol versus control cells, p<0.001

## C[C@@H]1C[C@H]2[C@@H]3CCC4=CC(=O)C=C[C@]4(C)[C@@]3(F)[C@@H](O)C[C@]2(C)[C@@]1(O)C(=O)CO [Dexamethasone, dexamethasone]
interleukin-8 (IL8); Homo sapiens, NCTC-2544, versus PMA stimulated control, NCTC 2544, read-out: percentage of inhibition of IL8 release induced by PMA
  inhibition at 0.1 µM: 81%
interleukin-8 (IL8); [2]
  IL8: 5.967 ± 0.203 ng/mL
interleukin-8 (IL8); versus PMA stimulated control, NCTC 2544
  percentage of inhibition of IL8 release induced by PMA: 80.5%

## CCCCCCCCCCCCCC(=O)O[C@@H]1[C@@H](C)[C@@]2(O)[C@@H](C=C(CO)C[C@]3(O)C(=O)C(C)=C[C@@H]23)[C@@H]2C(C)(C)[C@]12OC(C)=O [PMA]
MMP9; PMA stimulated
  ΔΔCt (MMP9): 6.55
MMP9; PMA stimulated, control cells = 1
  MMP9 expression (relative quantity): 93.70 $$$
MMP9; preincubated 24 hours, then PMA, ARG 0.2% + LUP 0.02%
  Mean ΔCt (CtMMP9 − CtGAPDH): 2.32
interleukin-8 (IL8); [2]
  IL8 (ng/ml): 30.60 ± 1.888 $$$ ng/ml

## C=C1/C(=C\C=C2/CCC[C@]3(C)[C@@H]([C@H](C)CCCC(C)(C)O)CC[C@@H]23)C[C@@H](O)C[C@@H]1O [calcitriol]
kallikrein-5 (KLK5); NHEK, 24 hours, with calcitriol, ARG 0.2% + LUP 0.02%
  Mean ΔCt (CtKLK5 − CtGAPDH): 2.46
kallikrein-5 (KLK5); NHEK, 24 hours, with calcitriol, control cells = 1.00
  KLK5 expression (relative quantity): 2.49 $$$
kallikrein-5 (KLK5); NHEK, 24 hours, with calcitriol, ΔCtcontrol−ΔCttreated
  ΔΔCt (KLK5): 1.32
kallikrein-5 (KLK5); [3]
  stimulation of the gene expression of kallikrein-5 by keratinocytes: 149%
Cathelicidin (LL37)
  Mean ΔCt (CtLL37 − CtGAPDH): 11.02
  LL37 expression (relative quantity): 9.12 $$$
  ΔΔCt (LL37): 3.19
Cathelicidin (LL37); [3]
  stimulation of the gene expression of LL37 by keratinocytes: 812%

## VEGF
[1]
  T24 h - %/control (without VEGF) T0: 213.2 ± 10.8%
  T48 h - %/control (without VEGF) T0: 262.6 ± 5^ %
[1]; after 24 hours of incubation
  stimulation of the growth of endothelial cells in relation to control cells: 78.9%
[1]; after 48 hours of incubation
  stimulation of the growth of endothelial cells in relation to control cells: 159%

## arabinogalactan [ARG]
VEGF; ARG 0.2%, LUP 0.02%, alone or in combination
  Mean ΔCt (CtVEGF − CtGAPDH): 9.03
VEGF; control cells = 1
  VEGF expression (relative quantity): 0.707 **
VEGF; ΔCtcontrol−ΔCttreated
  ΔΔCt (VEGF): −0.5
VEGF; ARG 0.2%, LUP 0.02%
  Percentage of inhibition (VEGF expression): 29.3%
VEGF; ARG 0.2%, LUP 0.02%, listed as Arabinogalactan
  Percentage of inhibition (VEGF expression): 29%
Cathelicidin (LL37)
  Mean ΔCt (CtLL37 − CtGAPDH): 11.31
  LL37 expression (relative quantity): 7.46 *
  ΔΔCt (LL37): 2.9
  Percentage of inhibition (LL37 expression): 18.2%
Cathelicidin (LL37); listed as Arabinogalactan
  Percentage of inhibition (LL37 expression): 18%
[1]
  T24 h - %/control (without VEGF) T0: 204.7 ± 7.1%
  Percentage of inhibition 24 h (proliferation induced by VEGF): 17.03%
  T48 h - %/control (without VEGF) T0: 252.9 ± 6^ %
  Percentage of inhibition 48 h (proliferation induced by VEGF): 9.71%
[1]; listed as arabinogalactan
  Percentage of inhibition 24 h (proliferation induced by VEGF): 17%
  Percentage of inhibition 48 h (proliferation induced by VEGF): ~10%
